Laboratory results as given in patent publication US12209140B2, “Therapeutics for the treatment of glaucoma” (Mayo Foundation for Medical Education and Research, priority 2014, dated 2025).
Entries after “also recorded” stand apart in the source; their conditions may differ.

What was measured:
[1] = test system: normotensive C57BL/6 mice; experiment: intraocular pressure change in normotensive mice after treatment; format: in vivo, mouse; settings: for combination treatment in mice with CKL/CKLP1 and prostaglandin analog LFA (FIG. 2 values, pressure change): alone or combined with latanoprost free acid, additive effects; for IOP lowering in the presence of Erk1/2 inhibitor U0126: mice (n=10), CKLP1+LFA+U0126
Experimental: FIG. 1B is a graph of the change in C57BL/6 mice intraocular pressure following treatment with cromakalim in DMSO or CKLP1 in aqueous carrier. FIG. 2 is a graph of the combination treatment in mice with […]1 and prostaglandin showing additive effects. CKL: -12.77±2.38, […]1: -16.11±2.61, CKLP1+LFA: -26.06±2.98. FIG. 1A is a graph of pressure readings obtained from a pair of human anterior eye segments where one eye was treated with a KATP channel opener prodrug (CKLP1) while the fellow anterior segment was treated with vehicle alone. […] FIG. 1B is a graph of pressure change obtained in normotensive C57BL/6 mice following treatment with parent (CKL) and prodrug (CKLP1). […] FIG. 3 is a graph showing the treatment with various forms of CKL. FIG. 4 is a graph showing the treatment of rabbits (n=5) with CKL-P1 in PBS, optically active isomer. FIG. 5 is a graph showing the treatment with ent-CKLP1(5 mM).

[2] = test system: human anterior eye segments; experiment: human anterior segment perfusion organ culture (ex vivo human eye), pressure readings
Experimental: FIG. 1A is a graph of pressure readings obtained from a pair of human anterior eye segments where one eye was treated with a KATP channel opener prodrug (CKLP1) while the fellow anterior segment was treated with vehicle alone. […] FIG. 1B is a graph of pressure change obtained in normotensive C57BL/6 mice following treatment with parent (CKL) and prodrug (CKLP1).

rabbits = experiment: treatment of rabbits (intraocular pressure model); format: in vivo
Experimental: FIG. 4 is a graph showing the treatment of rabbits with CKL-P1 in PBS, optically active isomer. FIG. 3 is a graph showing the treatment with various forms of CKL. FIG. 4 is a graph showing the treatment of rabbits (n=5) with CKL-P1 in PBS, optically active isomer. FIG. 5 is a graph showing the treatment with ent-CKLP1(5 mM).

rat cortical neurons = experiment: H2O2 oxidative stress in rat cortical neurons, lactate dehydrogenase assayed; format: cell-based; settings: 75 μM H2O2 for 24 hours with and without CKLP1
Excerpt: The present invention also provides a CKLP1 composition used to treat neurons; a CKLP1 composition used for neuroprotection; a method of neuroprotection using a CKLP1 composition; a method of treating neurons using a CKLP1 composition; and methods and compositions for the treatment of ocular hypertension, blindness and loss of vision using a CKLP1 composition. The claimed CKLP1 composition provides neuroprotective properties. […] Therefore, CKLP1 and other prodrugs (as disclosed herein) may represent the first in class treatment for glaucoma that can treat the main risk factor (elevated intraocular pressure) and also the sight of damage (optic nerve).

eyes = experiment: activity in vivo in eyes
Excerpt: The enantiomer of CKLP1 is referred to as “ent-CKLP1”. CKLP1 can be synthesized from levcromakalim while ent-CKLP1 can be synthesized from (+)-cromakalim.

SMILES: CC1(C)Oc2ccc(C#N)cc2C(N2CCCC2=O)C1O (centres unmarked) [CKL, cromakalim, reference compound]
- combination treatment in mice with CKL/CKLP1 and prostaglandin analog LFA (FIG. 2 values, pressure change) [1]: −12.77±2.38

SMILES: CC1(C)Oc2ccc(C#N)cc2[C@@H](N2CCCC2=O)[C@@H]1OP(=O)(O)O [CKLP1]
- pressure in human anterior segment perfusion organ culture ([2]; CKLP1 2 μM, fellow anterior segment treated with vehicle alone): reduction of pressure; also recorded: reduces pressure
- activity in ex vivo human eyeball model ([2]; ex vivo human eyeball): good activity
- IOP lowering in the presence of Erk1/2 inhibitor U0126 [1]: not able to lower pressure
- combination treatment in mice with CKL/CKLP1 and prostaglandin analog LFA (FIG. 2 values, pressure change) [1]: −16.11±2.61
- biological activity in normotensive mouse model ([1]; mouse): good activity
- activity in rabbit model (rabbits): good activity
- H2O2 oxidative stress (lactate dehydrogenase levels) (rat cortical neurons): inhibited H2O2 oxidative stress
- activity in vivo in eyes (eyes): active

SMILES: O=C(O)CCC/C=C\C[C@@H]1[C@@H](CC[C@@H](O)CCc2ccccc2)[C@H](O)C[C@@H]1O [LFA, latanoprost free acid, reference compound]
- IOP lowering in the presence of Erk1/2 inhibitor U0126 [1]: can lower IOP

SMILES: CC1(C)Oc2ccc(C#N)cc2[C@H](N2CCCC2=O)[C@H]1OP(=O)(O)O [ent-CKLP1]
- activity in vivo in eyes (eyes): active
